How the values were obtained:
Assay type in all cases: cell-based
OCI-Ly10 cells = assay: Anti proliferative activity in OCI-Ly10 cells (CTG luminescence); conditions: for inhibition at 1 µM / inhibition at 10 µM: Homo sapiens, OCI-Ly10, 72 h
Description: Example 80: Determination of Anti Proliferative Activity in OCI-Ly10 Cells
OCI-Ly10 cells (UHN Canada) were plated at 7500 cells/well in 96 well flat bottom plates (Corning, Cat. No CLS3904) using complete Iscove's Modified Dulbecco's Medium (IMDM. After 6 hours, compounds from the present invention were added to the cells from 10 mM stocks made in DMSO (Sigma, Cat. No D2650). Each concentration of compound was tested in triplicates with DMSO concentration not exceeding a final percentage of 0.1 in the cells. After 72 hours of incubation in CO2 incubator, CTG (Promega, Cat. No G7572) was added to the wells and Luminescence readings were taken in the plate reader. Percent inhibition in proliferation was calculated using Microsoft Excel software. Positive control (100% survival)=Cells in complete media with 0.1% DMSO; Negative control/blank (0% survival)=Media alone containing 0.1% DMSO.

NCI-H2122 cells = assay: Anti proliferative activity in NCI-H2122 cells by XTT assay; conditions: H2122 cell line; for IC50: 8 days (192 hour) incubation; for viability at 30 µM: 8 days
Description: Example 79: Determination of Anti Proliferative Activity in NCI-H2122 Cells by XTT Assay
NCI-H2122 cells (ATCC CRL-5985) were plated at 1000 cells/well in 96 well flat clear bottom plates (Corning, Cat. No 3596) using complete RPMI-1640 media. After 24 hours, compounds of present invention were added to cells from 10 mM stocks made in DMSO (Sigma Cat no. D2650). Each concentration of compound was tested in triplicate with DMSO concentration not exceeding a final percentage of 0.3 in the cells. Complete RPMI-1640 media changed at Day 3 (72 hour) and Day 6 (144 hour) along with compounds of current invention. After 8 days (192 hour) of incubation assay terminated using 50 μl of XTT reagent (Invitrogen, Cat. no X6493). XTT reagent was made by dissolving 1 mg/mi XTT in serum free media with addition of 25 μM Phenazine methosulfate (sigma Cat. no P9625). Absorbance readings were taken in spectrophotometer at 465 nm. The data was analysed using graph pad prism software. Positive control (100% survival)=Cells in complete media with 0.3% DMSO; Negative control/blank (0% survival)=Media alone containing 0.3% DMSO.
(§1) The compounds of the present invention were screened in the above mentioned assay and the results are tabulated below.

NCI-H1792 cells = assay: Anti proliferative activity in NCI-H1792 cells by XTT assay; conditions: H1792 cell line; for IC50: 72 hours incubation
Description: Example 78: Determination of Anti Proliferative Activity in NCI-H1792 Cells by XTT Assay
NCI-H1792 cells (ATCC CRL-5895) were plated at 2000 cells/well in 96 well flat clear bottom plates (Corning, Cat. No 3596) using complete RPMI media. After 24 hours, compounds of present invention were added to cells from 20 mM stocks made in DMSO (Sigma Cat no. D2650). Each concentration of compound was tested in triplicate with DMSO concentration not exceeding a final percentage of 0.3 in the cells. After 72 hours of incubation in CO2 incubator, XTT (Invitrogen, Cat. no X6493) was added to the wells. XTT was dissolved in serum free media at 1 mg/ml and absorbance readings were taken in spectrophotometer at 465 nm. The data was analysed using graph pad prism software. Positive control (100% survival)=Cells in complete media with 0.3% DMSO; Negative control/blank (0% survival)=Media alone containing 0.3% DMSO.
as §1

[1] = Homo sapiens, NCI-H1792, 72 h, at 30 μM, 72 hours

SMILES	inhibition at 1 µM (OCI-Ly10 cells) [%]	inhibition at 10 µM (OCI-Ly10 cells; at 10 μM) [%]	IC50 (NCI-H2122 cells; Homo sapiens, NCI-H2122, 192 h) [µM]	viability at 30 µM (NCI-H2122 cells; Homo sapiens, NCI-H2122, 192 h) [%]	other results
C#Cc1cc(C#CC2(NC(=O)N3CCN(C(=O)C=C)CC3)CC2)ccc1Cl [Example 36]	39	65	–	–	–
CC(C#Cc1ccc(Cl)c(Cl)c1)NC(=O)N1CCC(N2C(=O)C=CC2=O)CC1 (stereo not drawn) [Example 59]	25	100	< 10	0	–
C=CS(=O)(=O)N1CCN(C(=O)NC2(C#Cc3ccc(Cl)c(Cl)c3)CC2)CC1 [Example 51, N-(1-((3,4-dichlorophenyl)ethynyl)cyclopropyl)-4-(vinylsulfonyl) piperazine-1-carboxamide]	3	52	–	0	–
C=CC(=O)N1CCC(C(=O)NC(C)C#Cc2ccc(Cl)c(Cl)c2)C1 (stereo not drawn) [Example 71]	–	62	–	–	% inhibition (at 1 μM) (OCI-Ly10 cells; 72 hours): 9%; IC50 (NCI-H1792 cells; Homo sapiens, NCI-H1792, 72 h): 10 to 25 µM; viability at 30 µM (NCI-H1792 cells; [1]): 26%
C=CC(=O)N1CCN(C(=O)NC(C)C#Cc2ccc(C#N)c(C(F)(F)F)c2)CC1 (stereo not drawn) [Example 63]	49	79	< 10	18	–
C=CC(=O)N1CCN(C(=O)NC2(C#Cc3ccc(Cl)c(Cl)c3)CC2)CC1 [Example 23]	48	67	< 10	21	–
C=CC(=O)N1CCC(C(=O)NC(C)C#Cc2ccc(Cl)c(Cl)c2)C1 (stereo not drawn) [Example 72]	–	–	–	–	% inhibition (at 1 μM) (OCI-Ly10 cells; 72 hours): 4%; % inhibition (at 10 μM) (OCI-Ly10 cells; at 10 μM, 72 hours): 55%; IC50 (NCI-H1792 cells): 10 to 25 µM; % Viability (at 30 μM) (NCI-H1792 cells; at 30 μM, 72 hours): 27%
C=CC(=O)N1CCN(C(=O)NC(C)C#Cc2ccc(Cl)c(Cl)c2)CC1=O (racemic) [Example 52, 4-acryloyl-N-(4-(3,4-dichlorophenyl)but-3-yn-2-yl)-3-oxopiperazine-1-carboxamide]	3	82	10 to 25	78	–
CC(C#Cc1ccc(Cl)c(Cl)c1)NC(=O)N1CCN(C(=O)/C=C/C(F)(F)F)CC1 (racemic) [Example 42, (E)-N-(4-(3,4-dichlorophenyl)but-3-yn-2-yl)-4-(4,4,4-trifluorobut-2-enoyl) piperazine-1-carboxamide]	81	62	< 10	0	–
C=CCN(C(=O)C=C)C1CCN(C(=O)NC(C)C#Cc2ccc(Cl)c(Cl)c2)CC1 (stereo not drawn) [Example 58]	–	–	–	72	IC50 (NCI-H1792 cells; Homo sapiens, NCI-H1792, 72 h): > 25 µM
C=CC(=O)N1CCN(C(=O)NC(C)C#Cc2ccc(Cl)c(Cl)c2)CC1 (single isomer, unassigned) [Example 1a, 4-acryloyl-N-(4-(3,4-dichlorophenyl)but-3-yn-2-yl) piperazine-1-carboxamide]	–	–	–	26	IC50 (NCI-H1792 cells; Homo sapiens, NCI-H1792, 72 h): < 10 µM; viability at 30 µM (NCI-H1792 cells; [1]): 45%
CC(C)/C=C(\C#N)C(=O)N1CCN(C(=O)NC2(C#Cc3ccc(Cl)c(Cl)c3)CC2)CC1 [Example 45, (E)-4-(2-cyano-4-methylpent-2-enoyl)-N-(1-((3,4-dichlorophenyl)ethynyl)cyclopropyl) piperazine-1-carboxamide]	0	44	–	–	–
C=CC(=O)N(C)[C@@H]1CCCC[C@H]1N(C)C(=O)NC(C)C#Cc1ccc(Cl)c(Cl)c1 (single isomer, unassigned) [Example 48a]	–	–	–	–	IC50 (NCI-H2122 cells): > 25 µM
CC(C#Cc1ccc(Cl)c(Cl)c1)NC(=O)N1CCC(n2ccnc2)CC1 (stereo not drawn) [Example 62]	–	–	10 to 25	33	–
O=C(/C=C/C(F)(F)F)N1CCN(C(=O)NC2(C#Cc3ccc(Cl)c(Cl)c3)CC2)CC1 [Example 66, (E)-N-(1-((3,4-dichlorophenyl)ethynyl)cyclopropyl)-4-(4,4,4-trifluorobut-2-enoyl) piperazine-1-carboxamide]	75	73	< 10	–	–
C=CC(=O)N1CCN(C(=O)NC(C)C#Cc2ccc(Cl)cc2Cl)CC1 (stereo not drawn) [Example 30]	–	–	10 to 25	19	–

SMILES	inhibition at 1 µM (OCI-Ly10 cells) [%]	inhibition at 10 µM (OCI-Ly10 cells; at 10 μM) [%]	IC50 (NCI-H2122 cells; Homo sapiens, NCI-H2122, 192 h) [µM]	viability at 30 µM (NCI-H2122 cells; Homo sapiens, NCI-H2122, 192 h) [%]	other results
C=CC(=O)N(C)[C@@H]1CCCC[C@H]1N(C)C(=O)NC(C)C#Cc1ccc(Cl)c(Cl)c1 (single isomer, unassigned) [Example 48b]	–	–	–	–	IC50 (NCI-H2122 cells): 10 to 25 µM
C=CC(=O)N1CCN(C(=O)NC(C)C#Cc2ccc(Cl)s2)CC1 (stereo not drawn) [Example 17]	–	–	10 to 25	19	–
CC(C#Cc1ccc(Cl)c(Cl)c1)NC(=O)N1CCN(C(=O)/C(C#N)=C/N(C)C)CC1 (stereo not drawn) [Example 60]	–	–	> 25	90	–
C=CC(=O)N1CCN(C(=O)NC(C)C#Cc2ccc(Cl)c(NC(=O)C3CC3)c2)CC1 (racemic) [Example 41, 4-acryloyl-N-(4-(4-chloro-3-(cyclopropanecarboxamido)phenyl)but-3-yn-2-yl) piperazine-1-carboxamide]	0	36	10 to 25	–	–
C=CC(=O)N1CCN(C(=O)NC(C)C#Cc2ccc(N(CC)CC)c(Cl)c2)CC1 (stereo not drawn) [Example 31]	–	–	10 to 25	19	–
C=CC(=O)N1CC(N2CCN(C(=O)NC(C)C#Cc3ccc(Cl)c(C4(C)CC4)c3)CC2)C1 (stereo not drawn) [Example 29]	42	90	< 10	–	–
C=CC(=O)N1CCN(C(=O)NC(C)C#Cc2ccc(F)c(Cl)c2)CC1 (stereo not drawn) [Example 22]	–	–	> 25	49	–
CC(C#Cc1ccc(Cl)c(Cl)c1)NC(=O)N1CCN(C(=O)CC#N)CC1 (stereo not drawn) [Example 61]	–	–	> 25	59	–
C=CC(=O)N1CCN(C(=O)NC(C)C#Cc2ccc(F)c(Cl)c2)CC1 (stereo not drawn) [Example 5]	43	77	–	–	IC50 (NCI-H1792 cells; Homo sapiens, NCI-H1792, 72 h): < 10 µM; viability at 30 µM (NCI-H1792 cells; [1]): 57%
C=CC(=O)N1CCN(C(=O)NC(C)(C)C#Cc2ccc(Cl)c(Cl)c2)CC1 [Example 3]	12	92	–	–	IC50 (NCI-H1792 cells; Homo sapiens, NCI-H1792, 72 h): < 10 µM; viability at 30 µM (NCI-H1792 cells; [1]): 3%
C=CC(=O)N1CCN(C(=O)NC2(C#Cc3ccc(Cl)c(Cl)c3)CCCC2)CC1 [Example 24]	35	68	< 10	–	–
C=CC(=O)N1CCN(C(=O)NC2(C#Cc3cccc4ccccc34)CC2)CC1 [Example 35]	24	67	–	–	–
CC(C#Cc1ccc(Cl)c(Cl)c1)NC(=O)N1CCN(C(=O)C2(C#N)CC2)CC1 (racemic) [Example 44, 4-(1-cyanocyclopropane-1-carbonyl)-N-(4-(3,4-dichlorophenyl)but-3-yn-2-yl) piperazine-1-carboxamide]	–	–	> 25	99	–
C=CC(=O)N1CCN(C(=NC#N)NC(C)C#Cc2ccc(Cl)c(Cl)c2)CC1 (racemic) [Example 54, (E)-4-acryloyl-N′-cyano-N-(4-(3,4-dichlorophenyl)but-3-yn-2-yl) piperazine-carboximidamide]	37	56	–	–	IC50 (NCI-H1792 cells; Homo sapiens, NCI-H1792, 72 h): < 10 µM; viability at 30 µM (NCI-H1792 cells; [1]): 22%
C=CC(=O)N[C@H]1CC[C@@H](NC(=O)NC(C)C#Cc2ccc(Cl)c(Cl)c2)CC1 (stereo partly drawn) [Example 33]	–	–	> 25	–	viability at 30 µM (NCI-H1792 cells; [1]): 54%
C=CC(=O)N1CCN(C(=O)NC(C)C#Cc2ccc(Oc3ccccc3)c(Cl)c2)CC1 (stereo not drawn) [Example 25]	3	72	10 to 25	16	–

Reference: US11633394B2, “Substituted alkynylene compounds as anticancer agents” (Aurigene Oncology Limited, priority 2018, dated 2023)
